According to patent US5476847A, “Derivatives of phosphinic acid useful as endothelin converting enzyme inhibitors” (priority 1994, dated 1995):
Counter-ions that a name gives are not always drawn. Ends that are not written are not given here.

What was measured:
ECE = experiment: BET Challenge Method (pressor response to BET-1 in anesthetized rats); conditions: BET-1 5 μg/kg
Experimental: ECE in vivo activity is determined as described by Vemulapalli et al.,in Life Sciences, 53 (1993), pp. 783-793. Briefly, male Charles River CD rats (Wilmington, Mass.) weighing 250-275 g are anesthetized with Inactin, 100 mg/kg, ip. The trachea is catheterized. The right carotid artery and the right jugular vein are cannulated to record blood pressure (BP) and to infuse drugs, respectively. […] The rectal temperature is kept at 37° C. After an equilibration period of 15-30 min, the rats are infused with saline vehicle (20 μl/min) or test compounds (0.01-0.25 mg/kg/min) throughout the study. Thirty minutes after the start of infusion, the rats are challenged with BET-1 (5 μg/kg) via the venous catheter, and the BP is monitored for another 15 min.

[1] = S. Bertenshaw, et al, J. Med. Chem., 36(1993); cited from earlier work
[2] = system: I/H-induced ET-1 release in isolated perfused guinea pig lungs; experiment: Isolated Perfused Guinea Pig Lung Method (ischemia/hypoxia, I/H); assay type: in vivo; conditions: for elevation in PIP produced by I/H (FIG. 4): subcutaneous
Experimental: The method is as described by Vemulapalli et al., in J. PharmacoL Exp. Therap., 262, 3 (1992), pp. 1062-1069. Briefly, male Dunkin-Hartley guinea pigs (400-600 g) are anesthetized with pentobarbital 30 mg/kg, ip. The trachea is cannulated to facilitate respiration. The right jugular vein is cannulated to administer saline vehicle or test compound, or compounds are administered orally or subcutaneously. Ten minutes after the administration of saline vehicle or test compound, a thoracotomy is performed and the trachea, lungs and heart are removed intact and placed in warmed Tyrode's buffer (34°-35° C.) of the following composition in mM: NaCl 120, KCl 4.8, MgSO4.7H2 O 1.2, KH2 PO4 1.2, NaHCO3 25, CaCl2.2H2 O […], glucose 11 and BSA 0.5%. The pulmonary artery and trachea are cannulated and the lungs are mounted on a perfusion apparatus. Lungs are perfused at a rate of 3.2 ml/min via the pulmonary artery with oxygenated (95% O 2 and 5% CO2) Tyrode's solution maintained at 34°-35° C. The lungs are mechanically ventilated with room air with a volume of 2.5 ml/stroke and 50 strokes/min. Pulmonary insufflation pressure (PIP) is monitored through a side arm of the perfusion apparatus with a Statham pressure transducer and recorded on a Grass polygraph. Lungs are allowed to stabilize for 15 min. Lung effluents (50 ml) are collected every 15 min into chilled polypropylene centrifuge tubes (Corning) containing 100 μl each of aprotinin (200 kallikrein inhibitory units/ml) and soybean trypsin inhibitor (20N-α-benzoyl-L-arginine ethyl ester units/ml). Ischemia-hypoxia (I/H) is produced by cessation of ventilation and perfusion for 15 min followed by reperfusion and reventilation for 60 min. At the end of the experiment, the lungs are tested for cardiopulmonary reactivity by challenging with 5-hydroxy-tryptamine (0.5 mg) directly into the lungs via a pulmonary artery cannula.
In a separate study, anesthetized guinea pigs are administered saline vehicle or test compound. Ten minutes later, the lungs are removed and mounted on a perfusion apparatus as described above. After an equilibration period of 15 min, BET-1 (30 μg over 15 min) or ET-1 (0.6 μg over 15 min) is infused directly into the perfusion medium and the effects on PIP in vehicle and test compound-treated guinea pig lungs are assessed.
FIGS. 3 to 6 show the results of four compounds of the invention on I/H-induced ET-1 release in isolated perfused guinea pig lungs. The compounds include Compounds A and B, identified above, and: […]

CS(=O)(=O)N[C@@H](CCCCN)C(=O)N[C@@H](Cc1ccccc1)P(=O)(O)CC1(C(=O)N[C@@H](Cc2c[nH]c3ccccc23)C(=O)[O-])CCCC1.[Li+] [Example 5, N-[[1-[[hydroxy-[1(R)-[[6-amino-2(S)-[(methylsulfonyl)amino]-1-oxohexyl]-amino]-2-phenylethyl]phosphinyl]methyl]cyclopentyl]carbonyl]-L-tryptophan lithium salt]
lower blood pressure in response to the BET-1 challenge, compared to vehicle (FIG. 1) (ECE; 0.1 mg/kg/min infusion): ~15 mmHg

ET-1: endothelin-1, peptide with potent vasoconstrictive and mitogenic activity (CSCSSLMDKECVYFCHLDIIW; ends and bridges not checked; cysteine pairing not given here; UniProt P05305 53-73, looked up)
times more potent than its precursor big-endothelin-1 (BET-1) [1]: approximately 100 times

CC(C)C(CP(=O)(O)C(Cc1ccccc1)NC(=O)C(CCCCN)NS(C)(=O)=O)C(=O)N[C@@H](Cc1c[nH]c2ccccc12)C(=O)O (some centres unmarked) [Compound C]
elevation in PIP produced by I/H (FIG. 5) ([2]; iv, 10 mg/kg): attenuated

CC(C)CC(CP(=O)(O)C(Cc1ccc2ccccc2c1)NC(=O)[C@H](CCCCNC(=O)OCc1ccccc1)NS(C)(=O)=O)C(=O)N[C@@H](Cc1c[nH]c2ccccc12)C(=O)O (stereo partly drawn) [Compound B, N-[2-[[hydroxy[1-[[2(S)-[(methylsulfonyl)amino]-1-oxo-6-[[phenylmethoxy)-carbonyl]amino]hexyl]amino]-2-(2-naphthalenyl)ethyl]phosphinyl]methyl]-4-methyl-1-oxopentyl]-L-tryptophan disodium salt]
elevation in PIP produced by I/H (FIG. 4) ([2]; 3 mg/kg, 1 hour): attenuated | elevation in PIP produced by I/H (FIG. 4) ([2]; 10 mg/kg, 6 hours): attenuated | elevation in PIP produced by I/H (FIG. 4) ([2]; 30 mg/kg, 6 hours): attenuated | effect on blood pressure response to BET-1 challenge, compared to vehicle (FIG. 2) (ECE; 0.1 mg/kg/min infusion, result in words): does not have an effect | lower blood pressure in response to the BET-1 challenge, compared to vehicle (FIG. 2) (ECE; 0.3 mg/kg/min infusion): ~22 mmHg
